Assay results as given in ChEMBL document CHEMBL1201862, “PubChem BioAssay data set” (2004).
Activity calls are given as the source filed them.

Assays:
[1] = cells; format: functional
[2] = molecular target: Cytochrome P450 3A4 (Homo sapiens, UniProt P08684);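 note: CYP3A4 tested as one member of a cytochrome P450 panel screen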
[3] = cells; format: functional, cell-based
[4] = cells; format: functional, cell-based; remark: listed apart in the source
[5] = test system: Streptococcus sp. 'group A'; assay: growth inhibition of control SK(-) GAS strain, dose response, counter-screen for streptokinase expression inhibitor project, luminescence, kanamycin, BacTiterGlo, confirmation (AID 1900); format: functional, organism-based
[6] = test system: Streptococcus; assay: Group A Streptococcus viability loss, dose response, counter-screen for streptokinase expression inhibitor project, luminescence, BacTiterGlo (AID 1915); format: functional, organism-based;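 note: potency for reduction of bacterial viability or growth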
[7] = Luminescence Cell-Based Dose Retest to Confirm Inhibitors of Cancer Stem Cells. [Related pubchem assays (depositor defined):AID2717, AID2721]; format: functional; settings: Homo sapiens
[8] = molecular target: T1, Cytochrome P450 1A2 (Homo sapiens, UniProt P05177);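 note: PubChem cytochrome P450 panel assay, CYP1A2 panel member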
T1 sequence (P05177 whole entry): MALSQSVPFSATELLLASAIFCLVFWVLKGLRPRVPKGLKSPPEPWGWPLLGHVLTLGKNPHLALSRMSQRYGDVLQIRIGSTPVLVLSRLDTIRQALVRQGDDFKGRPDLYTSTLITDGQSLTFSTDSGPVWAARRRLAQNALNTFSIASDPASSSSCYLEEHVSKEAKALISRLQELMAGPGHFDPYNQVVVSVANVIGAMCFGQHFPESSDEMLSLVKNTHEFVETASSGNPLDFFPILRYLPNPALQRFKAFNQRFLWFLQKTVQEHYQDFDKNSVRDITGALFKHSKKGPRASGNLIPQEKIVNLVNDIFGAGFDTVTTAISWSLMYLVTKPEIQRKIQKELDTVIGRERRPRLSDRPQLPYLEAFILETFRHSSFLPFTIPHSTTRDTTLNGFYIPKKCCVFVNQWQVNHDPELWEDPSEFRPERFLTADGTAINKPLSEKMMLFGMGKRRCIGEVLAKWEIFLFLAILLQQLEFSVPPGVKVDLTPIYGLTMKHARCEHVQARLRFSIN

[9] = molecular target: T2, Corticotropin-releasing factor receptor 2/Corticotropin-releasing factor-binding protein (Homo sapiens, UniProt P24387+Q13324); assay: activators of CRF receptor 2 with binding protein – uHTS hits, confirmation (AID 602473); format: functional; settings: read-out: EC50_Mean
T2 sequence (Q13324 whole entry): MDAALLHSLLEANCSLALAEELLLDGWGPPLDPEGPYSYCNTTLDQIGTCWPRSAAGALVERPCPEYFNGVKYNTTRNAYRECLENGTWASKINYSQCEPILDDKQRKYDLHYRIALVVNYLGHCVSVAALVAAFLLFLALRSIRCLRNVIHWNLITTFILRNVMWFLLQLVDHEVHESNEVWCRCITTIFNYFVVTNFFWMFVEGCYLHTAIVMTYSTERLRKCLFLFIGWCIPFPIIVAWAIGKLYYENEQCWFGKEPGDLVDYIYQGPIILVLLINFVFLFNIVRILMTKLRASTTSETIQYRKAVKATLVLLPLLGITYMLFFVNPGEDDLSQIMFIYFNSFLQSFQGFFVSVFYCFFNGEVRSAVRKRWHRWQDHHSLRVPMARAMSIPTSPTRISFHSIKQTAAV
T2 sequence (P24387 whole entry): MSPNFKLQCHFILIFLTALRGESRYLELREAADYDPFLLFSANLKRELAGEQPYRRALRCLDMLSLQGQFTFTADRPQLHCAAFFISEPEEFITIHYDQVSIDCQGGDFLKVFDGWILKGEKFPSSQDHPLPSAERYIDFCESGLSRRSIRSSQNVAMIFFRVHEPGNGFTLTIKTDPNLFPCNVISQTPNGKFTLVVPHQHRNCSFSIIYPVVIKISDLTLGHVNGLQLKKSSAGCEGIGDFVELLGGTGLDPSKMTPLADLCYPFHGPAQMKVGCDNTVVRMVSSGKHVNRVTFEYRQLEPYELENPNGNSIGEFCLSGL

[10] = molecular target: T3, Heat shock factor protein 1 (Mus musculus, UniProt P38532); assay: inhibition of MG132-induced HSE-luciferase signal, confirmation, cell-based, NIH3T3, luminescence, dose retest (AID 2382); format: functional;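 note: NIH3T3 fibroblasts with HSF1-driven luciferase reporter stressed by proteasome inhibitor MG132; luminescence from HSF1-driven luciferase expression after 8 hours of MG132 stress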
T3 sequence (P38532 whole entry): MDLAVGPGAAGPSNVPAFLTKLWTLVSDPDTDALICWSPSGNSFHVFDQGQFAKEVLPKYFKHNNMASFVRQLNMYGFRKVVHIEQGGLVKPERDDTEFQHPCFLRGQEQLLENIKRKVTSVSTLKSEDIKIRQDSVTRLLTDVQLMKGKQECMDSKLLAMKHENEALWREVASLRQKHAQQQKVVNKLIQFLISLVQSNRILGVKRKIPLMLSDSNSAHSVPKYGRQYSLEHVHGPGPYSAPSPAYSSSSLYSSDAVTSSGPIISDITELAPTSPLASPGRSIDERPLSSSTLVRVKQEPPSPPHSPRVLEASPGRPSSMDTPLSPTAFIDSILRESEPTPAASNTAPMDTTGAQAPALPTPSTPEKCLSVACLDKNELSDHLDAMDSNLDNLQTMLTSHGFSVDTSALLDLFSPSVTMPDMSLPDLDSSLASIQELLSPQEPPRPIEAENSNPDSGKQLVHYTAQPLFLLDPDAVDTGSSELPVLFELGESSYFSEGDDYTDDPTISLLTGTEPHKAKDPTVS

[11] = test system: H4; assay: Luminescence Cell-Based Dose Response HTS to Identify Activators of 5'UTR Stem-Loop Driven Prion Protein mRNA Translation in H4 Neuroglioblastoma Cells. [Related pubchem assays: 1829 (Project Summary), 1814 (Primary HTS)]; format: functional; settings: Homo sapiens
[12] = Luminescence Cell-Based Dose Response HTS to Identify Activators of Luciferase Translation or Activity in H4 […] Cells. [Related pubchem assays: 1829 (Project Summary), 1814 (Primary HTS)]; format: functional
[13] = cytotoxicity toward NIH3T3 fibroblasts, dose response, counter-screen, cell-based, ATP luminescence, mouse fibroblasts (AID 2010); format: functional;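 note: cells exposed to compound for about 90 hours before reading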
[14] = test system: INS1; assay: beta cell apoptosis inhibitors, cytokine rescue, dose response, luminescence, retest (AID 449756); format: functional, cell-based; settings: Rattus norvegicus;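 note: cell death triggered by IL-1 beta plus TNF-alpha plus IFN-gamma mixture; protective hits raise ATP signal compared with cytokine alone wells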
[15] = inhibitors of intracellular T. cruzi replication, confirmation, NIH3T3 host cells, beta-gal luminescence (AID 2044); format: functional, cell-based;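 note: intracellular parasites grown in NIH/3T3 mouse fibroblasts as host cells; luminescent beta-galactosidase reporter signal from transgenic T. cruzi replicating inside host cells; inhibitors lower the luminescence signal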
[16] = molecular target: Cytochrome P450 2C19 (Homo sapiens, UniProt P33261); assay: Cytochrome panel assay with activity outcomes. Panel member name: p450-cyp2c19 Compounds with AC50 equal or less than 10 uM are considered active; format: functional
[17] = inhibitors of SNCA 5'UTR-driven reporter translation, confirmation, H4 neuroglioma cells, luminescence (AID 1988); format: functional, cell-based
[18] = Luminescence Cell-Based Dose Response HTS to Identify Inhibitors of 5'UTR Stem-Loop Driven Prion Protein mRNA Translation in H4 Neuroglioblastoma Cells. [Related pubchem assays: 1827 (Project Summary), 1813 (Primary HTS)]; format: functional
[19] = inhibitors of firefly luciferase expression or activity, dose response, H4 neuroglioma cells, luminescence (AID 1990); format: functional, cell-based

Sequence of Cytochrome P450 3A4 (P08684 whole entry): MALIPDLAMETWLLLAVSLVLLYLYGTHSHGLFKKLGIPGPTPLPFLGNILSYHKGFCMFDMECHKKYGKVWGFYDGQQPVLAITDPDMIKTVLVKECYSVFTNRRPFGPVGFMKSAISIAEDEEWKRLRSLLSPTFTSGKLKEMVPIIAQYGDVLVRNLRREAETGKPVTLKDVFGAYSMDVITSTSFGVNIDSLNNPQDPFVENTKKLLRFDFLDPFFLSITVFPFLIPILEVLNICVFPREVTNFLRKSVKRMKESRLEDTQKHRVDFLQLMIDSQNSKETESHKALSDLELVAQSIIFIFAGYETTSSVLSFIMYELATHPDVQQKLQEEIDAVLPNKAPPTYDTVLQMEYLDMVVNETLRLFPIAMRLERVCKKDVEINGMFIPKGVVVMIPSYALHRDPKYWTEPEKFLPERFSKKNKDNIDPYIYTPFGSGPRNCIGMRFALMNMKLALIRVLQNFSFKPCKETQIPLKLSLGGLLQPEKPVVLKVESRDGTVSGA
Sequence of Cytochrome P450 2C19 (P33261 whole entry): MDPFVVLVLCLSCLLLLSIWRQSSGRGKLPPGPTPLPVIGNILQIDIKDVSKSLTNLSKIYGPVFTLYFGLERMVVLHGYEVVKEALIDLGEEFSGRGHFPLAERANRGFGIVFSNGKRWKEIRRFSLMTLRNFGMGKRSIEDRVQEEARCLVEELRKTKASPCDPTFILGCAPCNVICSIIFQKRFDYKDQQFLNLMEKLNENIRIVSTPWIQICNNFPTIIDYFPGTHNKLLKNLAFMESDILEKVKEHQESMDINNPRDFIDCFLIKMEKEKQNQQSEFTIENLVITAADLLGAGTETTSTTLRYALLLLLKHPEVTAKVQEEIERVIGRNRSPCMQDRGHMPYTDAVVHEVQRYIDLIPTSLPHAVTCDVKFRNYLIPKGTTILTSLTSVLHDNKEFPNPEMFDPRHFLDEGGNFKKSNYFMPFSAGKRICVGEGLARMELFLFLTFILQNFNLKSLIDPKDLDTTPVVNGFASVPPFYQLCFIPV

COC(=O)CCCC(=O)N1CCCC(C(=O)c2ccc(-c3ccccc3)cc2)C1 (configuration not stated)
IC50 [1]: > 50 µM (active)

COc1cccc(Nc2ncc3nc(CCc4ccccc4)c(=O)n(CCC#N)c3n2)c1
AC50 [2]: 2 µM (inconclusive)

CC(=O)Nc1nc(C)c(-c2csc(Nc3ccccn3)n2)s1
EC50 [3]: 5.87 µM (active) | EC50 [4]: > 350 µM (not active)

COc1ccc(CC(=O)NN=C(S)NCC2CC2)cc1OC
EC50 [3]: > 350 µM (not active) | EC50 [4]: > 350 µM (not active)

CCCN(Cc1nnc(-c2ccccc2Cl)o1)C(=O)c1cc([N+](=O)[O-])cc([N+](=O)[O-])c1
IC50 [1]: 5.87 µM (active)

CN1C(=O)/C(=C/c2ccccc2F)Sc2ccc(C(=O)N3CCCC3)cc21
EC50 [5]: 1.06 µM (active) | EC50 [6]: 2.66 µM (active)

COc1cc([C@@H]2c3cc4c(cc3[C@@H](O)[C@H]3COC(=O)[C@H]23)OCO4)cc(OC)c1O[Si](C)(C)C(C)(C)C
AC50 [7]: 3.64 µM (active)

COCCNc1ncnc2ccc(-c3ccccc3CN(C)C)cc12
AC50 [8]: 25.1 µM (inconclusive) | AC50 [2]: 31.6 µM (inconclusive)

COc1ccc(C2C(C#N)=C(N)Oc3cc(O)ccc32)cc1C (configuration not stated)
EC50 [9]: > 53 µM (inactive)

Cc1ccc(Oc2nc(CN3CCOCC3)nc3sc4c(c23)CCC(C)C4)cc1C (configuration not stated)
AC50 [7]: 6.74 µM (active) | EC50 [10]: > 195 µM (not active)

CCOc1ccc(C(=O)CSc2nnc3ccccn23)cc1
EC50 [11]: > 120 µM (not active) | EC50 [12]: 35.7 µM (active)

CCc1ccc(NC(=O)COc2ccc3c(c2)OCO3)cc1
IC50 [1]: > 50 µM (active)

Cc1ccc2nc(-c3ccc(NS(=O)(=O)c4c(C)n(C)c(=O)n(C)c4=O)cc3)sc2c1
EC50 [12]: 2.06 µM (active)

O=C(COC(=O)c1ccc(Cl)s1)c1ccc[nH]1
IC50 [1]: 5.77 µM (active)

Cc1cc(=O)oc2cc(OCC(=O)N3CCN(c4ccc(F)cc4)CC3)ccc12
EC50 [3]: > 350 µM (not active) | EC50 [4]: > 350 µM (not active)

Cc1ccc(C(=O)Nc2nccs2)cc1
IC50 [1]: 41.4 µM (active)

O=C(c1ccccc1)c1cc2cc(Cl)ccc2[nH]1
EC50 [11]: 13.9 µM (active) | EC50 [12]: 94.6 µM (active)

CC(C)NC(=O)N1CCCC2(CCN(C(=O)c3ccco3)CC2)C1
AC50 [2]: 25.1 µM (inconclusive)

CCOc1ccc(C2=NN=C(c3ccc(N4CCOCC4)cc3)c3ccccc3N2)cc1
EC50 [11]: > 120 µM (not active) | EC50 [12]: 30.1 µM (active)

CS(=O)(=O)c1cccc(C(=O)N(CCc2ccccc2)Cc2cccs2)c1
EC50 [3]: > 350 µM (not active) | EC50 [4]: > 350 µM (not active)

CC(NC(=O)c1cc2c(s1)CS(=O)(=O)C2)c1ccccc1 (configuration not stated)
EC50 [3]: > 350 µM (not active) | EC50 [4]: > 350 µM (not active)

Cc1nc2nc3c(cn2n1)C(=O)CC(c1ccccc1)C3 (configuration not stated)
EC50 [4]: > 350 µM (not active)

COc1ccc(-c2nc(NC(=O)c3cc(C(C)(C)C)nn3C)sc2C)cc1
EC50 [13]: 8.58 µM (active) | AC50 [7]: 7.12 µM (active) | AC50 [14]: 10.2 µM (active) | EC50 [15]: 1.76 µM (active)

c1ccc2[nH]c(NC3=NCCC3)nc2c1
AC50 [16]: inconclusive | IC50 [1]: 12.2 µM (active)

O=C(c1ccccc1-c1nc(-c2ccccc2)no1)N1CCOCC1
AC50 [8]: 39.8 µM (inconclusive) | AC50 [2]: 28.2 µM (inconclusive)

CCOC(=O)N1CCC(NC(=O)c2cc(S(=O)(=O)N3CCCC3)cn2C)CC1
AC50 ([16]; read-out: AC50): 8.91 µM (inconclusive) | AC50 [2]: 14.1 µM (inconclusive)

CCc1cccc(C)c1NC(=S)N1CCCCC1c1cccnc1 (configuration not stated)
EC50 [9]: 6.05 µM (active)

C=CCN1C(c2cccc(C(F)(F)F)c2)=CS/C1=C(\C#N)c1nnc(N2CCOCC2)n1-c1ccccc1
EC50 [9]: > 53 µM (inactive)

CN(C)c1ccc(C=NN2C(=O)CSC2=S)c(Cl)c1
EC50 [9]: > 53 µM (inactive)

O=C(CNS(=O)(=O)c1ccc([N+](=O)[O-])cc1)N/N=C\c1ccc(O)cc1
EC50 [9]: 7.12 µM (active)

COc1ccccc1N1CCN(CCn2c(=O)[nH]c3c([nH]c4ccccc43)c2=O)CC1
AC50 [8]: 39.8 µM (inconclusive) | AC50 [2]: 15.8 µM (inconclusive)

COc1ccccc1N(CC(=O)N/N=C/c1c(O)ccc2ccccc12)S(C)(=O)=O
AC50 [14]: 2.15 µM (active) | EC50 [17]: 8.56 µM (active) | EC50 [4]: 9.19 µM (active) | EC50 [18]: 22.8 µM (active) | EC50 [19]: 13.5 µM (active)

C/C(Cn1nnc([N+](=O)[O-])n1)=N\NC(=O)c1ccncc1
EC50 [13]: > 30 µM (not active) | EC50 [15]: 0.214 µM (active) | IC50 [1]: 0.3 µM (active)

O=S(=O)(N/N=C1/CC(c2ccccc2)Oc2ccccc21)c1ccc(Br)cc1 (configuration not stated)
AC50 [7]: 2.79 µM (active)

Cc1ccc(/C=N/NC(=O)c2ccc(Br)o2)s1
EC50 [3]: 37.1 µM (active) | EC50 [4]: > 350 µM (not active)

COc1ccccc1N1CCN(CCN2C(=O)c3ccccc3C(C)(C)C2=O)CC1
AC50 [8]: 39.8 µM (inconclusive) | AC50 [2]: 15.8 µM (inconclusive)
